Results taken from patent publication US20260167614A1, “IDENTIFICATION OF SMALL MOLECULES THAT RECRUIT AND ACTIVATE RNASE L” (UNIVERSITY OF FLORIDA RESEARCH FOUNDATION, INCORPORATED, priority 2022, published 2026).

Experiments:
MCF-10A cells [1] = experiment: Boyden chamber invasion assay, MCF-10A with mutant pre-miR-21; assay type: cell-based; conditions: Dovitinib-binding site mutated
Experimental: (§1) The effect of the RiboTAC on a miR-21-associated invasive phenotype was next assessed. Treatment with 5 μM of 7 reduced the invasiveness of MDA-MB-231 cells, by ˜30% (p<0.05) (FIG. 4E-F). […] While forced expression of a mutant pre-miR-21 in which the Dovitinib-binding site is mutated also produced an invasive phenotype, the cells were insensitive to treatment with 7 (FIG. 12).
(§2) MCF-10A cells were first transfected with either a plasmid expressing pre-miR-21 (Addgene; catalog #21114) or a plasmid encoding a pre-miR-21 mutant (custom purchased from GenScript USA, Inc, FIG. 8) using jetPRIME (Polyplus), per the manufacturer's protocol (3.2 μg of plasmid per 60 mm dish). After transfection, cells (50,000 per insert) were seeded into the hanging inserts in serum free growth medium, with or without compound (0.1% final DMSO concentration). The assay was then completed as described for the MDA-MB-231 cells.

MDA-MB-231 cells = experiment: Boyden chamber invasion assay, MDA-MB-231; assay type: cell-based; conditions: 5 μM
Experimental: as §1
Boyden Chamber Invasion Assay. Hanging cell culture inserts (for 24-well plates, 8.0 μm) were pre-coated with 0.3 mg/mL Matrigel (Corning, 356234). MDA-MB-231 cells (75,000 per insert) were then seeded into the hanging inserts in serum free growth medium, with or without compound (0.1% final DMSO concentration). The inserts were then placed into 24-well plates containing complete. After 16-24 h, the medium was removed, and the hanging inserts were washed with 1×DPBS. Cells were fixed for 20 min at room temperature with 4% (w/v) paraformaldehyde in 1×DPBS. The inserts were washed twice with 1×DPBS and then stained with 0.1% (w/v) crystal violet in 20% methanol (v/v) for 20 min. The inserts were then washed twice with Nanopure water and once with 1×DPBS. Cells on the surface of the Matrigel (noninvasive) were removed with cotton swabs and invading cells were imaged under a Leica DMI3000 B […] fluorescent microscope (the number of invasive cells in 4 fields of view per sample).

pre-miR-21 and RNase L = molecular target: T1, pre-miR-21 and RNase L (Homo sapiens, UniProt Q05823, H672N); experiment: Co-immunoprecipitation of pre-miR-21 and RNase L; assay type: binding; conditions: WT 32P-pre-miR-21, inactive RNase L
T1 construct: GST (N, cleaved yes); made in house; host or cells: BL21 AI Escherichia coli
T1 sequence (Q05823 1-741 H672N): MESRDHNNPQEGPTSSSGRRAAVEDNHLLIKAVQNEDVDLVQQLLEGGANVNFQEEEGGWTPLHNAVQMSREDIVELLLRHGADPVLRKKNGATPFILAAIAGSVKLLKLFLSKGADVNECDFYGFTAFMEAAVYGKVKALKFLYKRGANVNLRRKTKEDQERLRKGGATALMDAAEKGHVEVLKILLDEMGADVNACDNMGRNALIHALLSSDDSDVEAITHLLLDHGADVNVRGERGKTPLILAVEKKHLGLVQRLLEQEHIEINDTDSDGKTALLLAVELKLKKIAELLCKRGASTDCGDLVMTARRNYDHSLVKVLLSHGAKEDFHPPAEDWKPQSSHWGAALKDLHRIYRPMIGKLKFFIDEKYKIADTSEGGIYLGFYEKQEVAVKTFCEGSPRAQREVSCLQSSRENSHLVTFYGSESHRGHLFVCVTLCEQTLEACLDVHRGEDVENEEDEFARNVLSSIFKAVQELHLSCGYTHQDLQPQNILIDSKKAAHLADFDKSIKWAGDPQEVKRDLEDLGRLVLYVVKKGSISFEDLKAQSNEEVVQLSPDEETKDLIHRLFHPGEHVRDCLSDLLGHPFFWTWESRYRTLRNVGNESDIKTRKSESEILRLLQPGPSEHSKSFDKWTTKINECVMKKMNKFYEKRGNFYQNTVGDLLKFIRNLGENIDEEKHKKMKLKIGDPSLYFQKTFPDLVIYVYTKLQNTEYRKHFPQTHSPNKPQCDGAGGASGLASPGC
Experimental: Co-Immunoprecipitation of pre-miR-2I and RNase L. Approximately 20,000 cpm of 32P 5′-end labeled WT or mutant pre-miR-21 or an RNA construct where the A-bulge was mutated to a base pair (5′-[…] UGGGCUGU-3′) was folded in 1× RNase L Assay Buffer for 1 min at 95° C. and cooled on ice for 10 min. Following cooling, β-mercaptoethanol (7 mM), ATP (50 μM), and MgCl2 (1 mM) were added to the solution. The solution was aliquoted, and compounds were incubated in solution for 15 min (1% DMSO final concentration). […] Beads were then washed with 1×PBS supplemented with 0.02% (v/v) Tween-20. Radioactive signal in the supernatant and associated with the beads was quantified by a Beckman Coulter LS6500 Liquid Scintillation Counter. Relative RNA enrichment was calculated by comparing the radioactive signal associated with beads compared to the total radioactive signal from the beads plus the supernatant.

MCF-10A cells [2] = experiment: Boyden chamber invasion assay, MCF-10A with forced pre-miR-21 expression; assay type: cell-based; conditions: WT pre-miR-21 plasmid
Experimental: as §1, §2

co-immunoprecipitation of RNA with RNase L (pre-miR-21 and RNase L): pulled down with RNase L
Compound: CNC(=O)[C@H](c1ccccc1)N(C)Cc1ccc(-c2cccc(-c3sccc3NC(=O)CCOCCOCCOCCC(=O)NCCN3CCN(c4ccc5nc(-c6c(N)c7c(F)cccc7[nH]c6=O)[nH]c5c4)CC3)c2)cc1 [RiboTAC 7, (S)—N-(2-(4-(2-(4-amino-5-fluoro-2-oxo-1,2-dihydroquinolin-3-yl)-1H-benzo[d]imidazol-6-yl)piperazin-1-yl)ethyl)-3-(2-(2-(3-((2-(4′-((methyl(2-(methylamino)-2-oxo-1-phenylethyl)amino)methyl)-[1,1′-biphenyl]-3-yl)thiophen-3-yl)amino)-3-oxopropoxy)ethoxy)ethoxy)propanamide]
invasive phenotype induced by forced expression of mutant pre-miR-21 (MCF-10A cells [1]): insensitive | reduction of invasiveness (MDA-MB-231 cells): ~30% | invasive phenotype induced by forced expression of pre-miR-21 (MCF-10A cells [2]): rescued
